Test results as given in ChEMBL document CHEMBL6134791, “Stereochemical optimization of N,2-substituted cycloalkylamines as norepinephrine reuptake inhibitors” (RSC Med Chem, 2024).

Target: Sodium-dependent noradrenaline transporter (Homo sapiens, UniProt P23975)
Assay: Inhibition of NET (unknown origin) expressed in Jump In T-REx HEK293 cells assessed as decrease in norepinephrine-induced cellular response preincubated for 1 hr followed by norepinephrine stimulation measured for 30 mins by TRACT assay
Format: cell-based

Sodium-dependent noradrenaline transporter, sequence (P23975 whole entry): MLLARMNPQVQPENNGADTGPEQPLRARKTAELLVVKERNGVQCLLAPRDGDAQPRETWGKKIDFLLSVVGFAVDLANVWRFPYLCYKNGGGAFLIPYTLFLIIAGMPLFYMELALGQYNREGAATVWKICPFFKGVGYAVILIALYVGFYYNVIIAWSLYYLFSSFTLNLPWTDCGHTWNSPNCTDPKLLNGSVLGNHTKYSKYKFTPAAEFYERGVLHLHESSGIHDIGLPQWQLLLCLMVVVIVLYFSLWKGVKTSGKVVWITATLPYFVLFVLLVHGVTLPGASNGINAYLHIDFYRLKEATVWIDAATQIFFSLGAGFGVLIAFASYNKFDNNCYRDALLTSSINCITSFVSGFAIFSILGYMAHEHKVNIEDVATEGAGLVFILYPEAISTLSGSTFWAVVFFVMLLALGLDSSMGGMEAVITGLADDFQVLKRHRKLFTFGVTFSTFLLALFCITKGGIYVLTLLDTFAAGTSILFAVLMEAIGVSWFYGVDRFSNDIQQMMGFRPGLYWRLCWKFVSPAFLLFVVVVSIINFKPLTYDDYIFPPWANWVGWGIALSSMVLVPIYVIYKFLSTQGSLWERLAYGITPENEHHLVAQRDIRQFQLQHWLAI

SMILES	IC50 [nM]
COC(=O)CCCNC1CCCC1c1ccc(Cl)c(Cl)c1 (configuration not stated)	158
OCCNC1CCCC1c1ccc(Cl)c(Cl)c1 (configuration not stated)	79.4
CCCCNC1CCCC1c1ccc(Cl)c(Cl)c1 (configuration not stated)	251
CNCCCCNC1CCCC1c1ccc(Cl)c(Cl)c1 (configuration not stated)	316
OCCCCNC1CCCCC1c1ccc(Cl)c(Cl)c1 (configuration not stated)	501
COCCCCNC1CCCC1c1ccc(Cl)c(Cl)c1 (configuration not stated)	100
Clc1ccc(C2CCCC2NCc2ccccc2)cc1Cl (configuration not stated)	631
